Measured values: patent US20240294491A1, “SALT OF HETEROCYCLIC COMPOUND WITH ANTI-MALARIA ACTIVITY, AND CRYSTALS THEREOF” (priority 2021, published 2024)
Several values for one entry are separate records, joined by “and”; a condition that tells them apart may be missing. Identical values can stand only once.

How the values were obtained:
[1] = system: 3D7 strain of Plasmodium falciparum (drug-sensitive strain); experiment: in vitro antimalarial activity, p-LDH colorimetric protozoan growth assay, 3D7 strain; type: cell-based; settings: 72 hours culture, p-LDH colorimetry, read-out: 50% protozoan-growth-inhibitory concentration (IC50 value)
Method: (§1) With use of 3D7 and K1 strains, which are a drug-sensitive strain and drug-resistant strain of Plasmodium falciparum, respectively, provided by The Tropical Disease Research Center, Kitasato University, the in vitro antimalarial activity of the compound for these plasmodia was determined. In culture of the test protozoan parasites, maintenance and subculture were performed with a partially modified version of a method by Trager and Jensen (Trager, W and Jensen, J.: Human malaria parasites in continuous culture, Science, 193:673-677, (1976)), and the resultants were used. […]
(§2) The protozoan infection rate was maintained within the range of 0.25 to 10%. Drug sensitivity test was carried out with a modified version of a method by Desjardins et al. (Desjardins, R. E., Canfield, C. J., Haynes, D. E. and Chulay, J. D.: Quantitative assessment of antimalarial activity in vitro by a semiautomated microdilution technique. Antimicrob. Agents Chemother., 16:710-718 (1979)). […] Blue formazan, a product generated through the reaction, was detected by measuring absorbance at a measurement wavelength of 660 nm by using a microplate reader to determine the presence or absence of protozoan growth by colorimetry. […]

[2] = system: K1 strain of Plasmodium falciparum (drug-resistant strain); experiment: in vitro antimalarial activity, p-LDH colorimetric protozoan growth assay, K1 strain; type: cell-based; settings: K1, 72 h, read-out: 50% protozoan-growth-inhibitory concentration (IC50 value)
Method: as §1, §2

[3] = system: Pf3D7^0087N9 strain of Plasmodium falciparum; experiment: drug efficacy evaluation with a humanized mouse malaria model; type: in vivo; settings: humanized NSG mice, oral once per day for 3 days, treatment initiated 72 hours after infection, infection rate by flow cytometry
Method: The following drug efficacy evaluation with a humanized mouse malaria model was carried out by The Art of Discovery S. L. (Vizcaya, Spain) with use of compound (I). In short, erythrocytes infected with Plasmodium falciparum were intravenously inoculated into mice with transplanted human erythrocytes, and drug treatment was initiated after the lapse of 72 hours. The therapeutic effect in terms of infection rates was evaluated by determining the proportion of infected erythrocytes in peripheral blood.
Used in the present test was a Pf3D7^0087N9 strain of Plasmodium falciparum, which was produced according to study described in Reference (1) shown below. Human erythrocytes were transplanted into female NSG (NOD-scid IL-2Rγnull) immunodeficient mice, and the proportion of human erythrocytes in all the erythrocytes in peripheral blood was maintained to be 40% or more throughout the test period. […] Specifically, 2 μL of peripheral blood collected from an infected mouse was stained with TER-119-Phycoeruthrine (mouse erythrocyte marker) and SYTO-16 (dye for nucleic acid staining), and analyzed by flow cytometry. […] 2008 May 21; 3(5):e2252. • (2) Jimenez-Diaz et al. Quantitative measurement of Plasmodium-infected erythrocytes in murine models of malaria by flow cytometry using bidimensional assessment of SYTO-16 fluorescence. […]

## C[C@@H](Oc1ccc(CNC(=O)c2cc(-n3cnc(C(F)(F)F)n3)c(N)nc2N)cc1)C(F)(F)F [compound (I), 2,6-diamino-5-[3-(trifluoromethyl)-1H-1,2,4-triazol-1-yl]-N-(4-{[(2R)-1,1,1-trifluoropropan-2-yl]oxy}benzyl)pyridine-3-carboxamide]
[1]
  IC50: 0.026 µg/mL and 53 nM
[2]
  IC50: 0.043 µg/mL and 89 nM
[3]
  ED90 (daily dose with which the infection rate on day 7 after the infection decreased by 90% from that in a nontreatment group): 3.2 mg/kg/day
